For assay [1], the system named is pERK1/2(THR202/TYR204) level in AsPC-1 cell line. As to the kind of experiment: KRAS G12D pERK assay. The class given is cell-based. The note with it: Homo sapiens, ASPC1, 2 h, AsPC-1 cells, 2 h compound treatment, HTRF. The gist of the method:
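AsPC-1 (KRAS G12D) cells, 30000/well, seeded overnight, then treated 2 h with a 10-point series at 0 to 10 μM final. Lysate pERK1/2 (Thr202/Tyr204) detected by HTRF after overnight antibody incubation at room temperature; IC50 from percent inhibition versus log concentration.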
For orientation: TR-FRET usually uses a lanthanide donor and a delayed reading to cut background.

Assay [2] has as its system ERK1/2 phosphorylation in SW1990 tumors. Briefly: SW1990 PD studies. The note with it: oral administration. The class given is in vivo, Female NCG mice. On the procedure:
Female NCG mice were subcutaneously implanted with 5×10^6 SW1990 cells per 200 μL PBS/matrigel in the right flank. After inoculation, when tumors reached a mean volume of approximately 350-450 mm^3 in size, mice were randomized into treatment groups. Randomized mice would receive a single dose of vehicle consisting of 0.5% MC or test compounds at various dose (e.g. 30, 50, or 100 mg/kg) by oral administration. Plasma was collected at 0.5, 2, 4, and 7 hours, and tumor was collected at 7 hours after dosing to determine exposure levels. Tumor fragments were snap frozen in homogenization tubes with liquid nitrogen and homogenized with T-PER Tissue Protein Extraction Buffer with protease and phosphatase inhibitors added fresh before use. Tumor lysates were then analyzed for ERK1/2 phosphorylation.

The subject of assay [3] is pERK1/2(THR202/TYR204) level in SW620 cell line. Briefly: KRAS G12V pERK assay. As to conditions: Homo sapiens, SW-620; SW620 cells, 2 hrs compound treatment, HTRF. It is filed as cell-based. On the procedure: SW620 cell line was used in this study. Cells were maintained in RPMI 1640 supplemented with 10% fetal bovine serum (Thermo Fisher), 50 units/mL penicillin and streptomycin (Thermo Fisher) and kept at 37° C. in a humidified atmosphere of 5% CO2 in air. Cells were reinstated from frozen stocks that were laid down within 30 passages from the original cells purchased. 40000 cells per well were seeded into a 96-well plate and incubated overnight. Cells were treated with a 10-point dilution series. The final compound concentration is from 0 to 10 μM. After 2 hrs compound treatment, cells were lysed, and the pERK1/2(THR202/TYR204) level in the cell lysates was detected by HTRF kit (Cisbio). In brief, a total of 16 μL of cell lysate from each well of a 96-well plate was transferred to a 384-well white assay plate. Lysate from each well was incubated with 2 μL of Eu3+-cryptate (donor) labeled anti-phospho-ERK1/2 and 2 μL of D2 (acceptor) labeled anti-phospho-ERK1/2 antibodies (Cisbio) overnight in dark at room temperature. When donor and acceptor are in close proximity, excitation of the donor with laser triggers a Fluorescence Resonance Energy Transfer (FRET) towards the acceptor, which in turn fluoresces at 655 nm wavelength. FRET signals were measured using a PHERAstar FSX reader (BMG Labtech). IC50 determination was performed by fitting the curve of percent inhibition versus the log of the inhibitor concentration using Dotmatics.

The record followed here is patent US20250262222A1, “HETEROCYCLIC COMPOUNDS, COMPOSITIONS THEREOF, AND METHODS OF TREATMENT THEREWITH” (BeiGene Switzerland GmbH, priority 2022, published 2025).

In general, IC50 refers to the concentration that gives 50% inhibition. High values mean weaker potency in that assay, low ones greater potency in that assay. For `Nc1cc(Cl)c(C(F)(F)F)c(-c2nc3c4c(nc(OCC5(C(F)F)COC5)nc4c2F)N2C[C@H]4CC[C@H](N4)[C@H]2CCO3)c1` [Example 32, 3-chloro-5-((6aR,7S,10R)-13-((3-(difluoromethyl)oxetan-3-yl)methoxy)-1-fluoro-5,6,6a,7,8,9,10,11-octahydro-4-oxa-3,11a,12,14,15-pentaaza-7,10-methanocyclohepta[4,5]cyclo-octa[1,2,3-de]naphthalen-2-yl)-4-(trifluoromethyl)aniline], the concentration for half-maximal inhibition (IC50) in assay [1] came to 0.117 µM. Also, in assay [2], the oral pharmacodynamic effects result is “enhanced oral pharmacodynamic effects”.
On the same counts, the results for `Cc1cc(N)cc(-c2nc3c4c(nc(OCC56COC(C5)C6)nc4c2F)N2C[C@H]4CC[C@H](N4)[C@H]2CCO3)c1C(F)(F)F` [Example 27, 3-((6aR,7S,10R)-13-((2-oxabicyclo[2.1.1]hexan-4-yl)methoxy)-1-fluoro-5,6,6a,7,8,9,10,11-octahydro-4-oxa-3,11a,12,14,15-pentaaza-7,10-methanocyclohepta[4,5]cyclo-octa[1,2,3-de]naphthalen-2-yl)-5-methyl-4-(trifluoromethyl)aniline] are 0.203 µM and “enhanced oral pharmacodynamic effects”.
The matching figures for `Cc1cc(N)cc(-c2nc3c4c(nc(OCC56COC(C(F)F)(C5)C6)nc4c2F)N2C[C@H]4CC[C@H](N4)[C@H]2CCO3)c1C(F)(F)F` [Example 29, 3-((6aR,7S,10R)-13-((1-(difluoromethyl)-2-oxabicyclo[2.1.1]hexan-4-yl)methoxy)-1-fluoro-5,6,6a,7,8,9,10,11-octahydro-4-oxa-3,11a,12,14,15-pentaaza-7,10-methanocyclohepta[4,5]cyclo-octa[1,2,3-de]naphthalen-2-yl)-5-methyl-4-(trifluoromethyl)aniline]: 0.092 µM and “enhanced oral pharmacodynamic effects”.
Turning to `C#Cc1c(F)ccc2cc(O)cc(-c3nc4c5c(nc(OC[C@@]67CCCN6C[C@H](F)C7)nc5c3F)N3CCOC[C@H]3CO4)c12` [Example 4, 5-ethynyl-6-fluoro-4-((S)-1-fluoro-11-(((2R,7aS)-2-fluorotetrahydro-1H-pyrrolizin-7a(5H)-yl)methoxy)-5a,6,8,9-tetrahydro-5H-4,7-dioxa-3,9a,10,12-tetraazabenzo[4,5]cyclohepta[1,2,3-de]naphthalen-2-yl)naphthalen-2-ol], the values for the half-maximal inhibitory concentration (IC50) in assay [3] and in assay [1] were 0.0067 µM and 0.076 µM, respectively.
The compound `Nc1cc(Cl)c(C(F)(F)F)c(-c2nc3c4c(nc(OCC56CCC(CC5)OC6)nc4c2F)N2C[C@H]4CC[C@H](N4)[C@H]2CCO3)c1` [Example 40, 3-((6aR,7S,10R)-13-((2-oxabicyclo[2.2.2]octan-4-yl)methoxy)-1-fluoro-5,6,6a,7,8,9,10,11-octahydro-4-oxa-3,11a,12,14,15-pentaaza-7,10-methanocyclohepta[4,5]cyclo-octa[1,2,3-de]naphthalen-2-yl)-5-chloro-4-(trifluoromethyl)aniline] gave a 50% inhibitory concentration (IC50) in assay [1] of 0.303 µM. Moreover, the oral pharmacodynamic effects entry in assay [2] was “enhanced oral pharmacodynamic effects”.
Compound `Nc1cc(Cl)c(C(F)(F)F)c(-c2nc3c4c(nc(OCC56CCC(C5)OC6)nc4c2F)N2C[C@H]4CC[C@H](N4)[C@H]2CCO3)c1` [Example 41, 3-((6aR,7S,10R)-13-((2-oxabicyclo[2.2.1]heptan-4-yl)methoxy)-1-fluoro-5,6,6a,7,8,9,10,11-octahydro-4-oxa-3,11a,12,14,15-pentaaza-7,10-methanocyclohepta[4,5]cyclo-octa[1,2,3-de]naphthalen-2-yl)-5-chloro-4-(trifluoromethyl)aniline] came in with a concentration for half-maximal inhibition (IC50) in assay [1] of 0.112 µM. Further, the oral pharmacodynamic effects result in assay [2] is “enhanced oral pharmacodynamic effects”.
`Nc1cc(Cl)c(C(F)(F)F)c(-c2nc3c4c(nc(OCC56COC(C(F)F)(C5)C6)nc4c2F)N2C[C@H]4CC[C@H](N4)[C@H]2CCO3)c1` [Example 35, 3-chloro-5-((6aR,7S,10R)-13-((1-(difluoromethyl)-2-oxabicyclo[2.1.1]hexan-4-yl)methoxy)-1-fluoro-5,6,6a,7,8,9,10,11-octahydro-4-oxa-3,11a,12,14,15-pentaaza-7,10-methanocyclohepta[4,5]cyclo-octa[1,2,3-de]naphthalen-2-yl)-4-(trifluoromethyl)aniline] displayed an IC50 in assay [1] of 0.061 µM. Further, in assay [2], the oral pharmacodynamic effects result was “enhanced oral pharmacodynamic effects”.
As for `C#Cc1c(F)ccc2cc(O)cc(-c3nc4c5c(nc(OC[C@@H]6C[C@@H](F)CN6C)nc5c3F)N3CCOC[C@H]3CO4)c12` [Example 7, 5-ethynyl-6-fluoro-4-((S)-1-fluoro-11-(((2S,4R)-4-fluoro-1-methylpyrrolidin-2-yl)methoxy)-5a,6,8,9-tetrahydro-5H-4,7-dioxa-3,9a,10,12-tetraazabenzo[4,5]cyclohepta[1,2,3-de]naphthalen-2-yl)naphthalen-2-ol], it took 0.072 µM to reach half-maximal inhibition in assay [3] (IC50).
On the same count and under the same terms, in the case of `CCc1c(F)ccc2cc(O)cc(-c3nc4c5c(nc(OC[C@@]67CCCN6C[C@H](F)C7)nc5c3F)N3CCOC[C@H]3CO4)c12` [Example 5, 5-ethyl-6-fluoro-4-((S)-1-fluoro-11-(((2R,7aS)-2-fluorotetrahydro-1H-pyrrolizin-7a(5H)-yl)methoxy)-5a,6,8,9-tetrahydro-5H-4,7-dioxa-3,9a,10,12-tetraazabenzo[4,5]cyclohepta[1,2,3-de]naphthalen-2-yl)naphthalen-2-ol] it was 0.022 µM; in that of `N#Cc1c(N)sc2c(F)ccc(-c3cc4c5c(nc(OC[C@@]67CCCN6C[C@H](F)C7)nc5c3F)N3CCOC[C@H]3CO4)c12` [Example 1, 2-amino-7-fluoro-4-((S)-4-fluoro-2-(((2R,7aS)-2-fluorotetrahydro-1H-pyrrolizin-7a(5H)-yl)methoxy)-8a,9,11,12-tetrahydro-8H-[1,4]oxazino[3′,4′:3,4][1,4]oxazepino[5,6,7-de]quinazolin-5-yl)benzo[b]thiophene-3-carbonitrile], 0.161 µM.
Take `Cc1cc(N)cc(-c2nc3c4c(nc(OCC5(C(F)F)COC5)nc4c2F)N2C[C@H]4CC[C@H](N4)[C@H]2CCO3)c1C(F)(F)F` [Example 26, 3-((6aR,7S,10R)-13-((3-(difluoromethyl)oxetan-3-yl)methoxy)-1-fluoro-5,6,6a,7,8,9,10,11-octahydro-4-oxa-3,11a,12,14,15-pentaaza-7,10-methanocyclohepta[4,5]cycloocta[1,2,3-de]naphthalen-2-yl)-5-methyl-4-(trifluoromethyl)aniline]: half-maximal inhibition in assay [1] (IC50) required 0.142 µM. Moreover, the oral pharmacodynamic effects result in assay [2] is “enhanced oral pharmacodynamic effects”.
In assay [3], `C#Cc1c(F)ccc2cc(O)cc(-c3nc4c5c(nc(OCC6(CN7CCOCC7)CC6)nc5c3F)N3CCOC[C@H]3CO4)c12` [Example 8, (S)-5-ethynyl-6-fluoro-4-(1-fluoro-11-((1-(morpholinomethyl)cyclopropyl)methoxy)-5a,6,8,9-tetrahydro-5H-4,7-dioxa-3,9a,10,12-tetraazabenzo[4,5]cyclohepta[1,2,3-de]naphthalen-2-yl)naphthalen-2-ol] displayed an IC50 of 0.043 µM.
